#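 Compound exposure: 48 hours, 5 concentrations, 96-well plates. TGI marks complete inhibition of growth.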
# Experiments:
# Assay in all cases: NCI tumour cell line growth inhibition, 48 h
# A498 renal = tested on: A498 renal
# A549 NSCLC = tested on: A549 NSCLC
# CAKI-1 renal = tested on: CAKI-1 renal
# CCRF-CEM leukemia = tested on: CCRF-CEM leukemia
# COLO 205 colon = tested on: COLO 205 colon
# DLD-1 colon = tested on: DLD-1 colon
# DMS 114 small cell lung = tested on: DMS 114 small cell lung
# DMS 273 small cell lung = tested on: DMS 273 small cell lung
# EKVX NSCLC = tested on: EKVX NSCLC
# HCC-2998 colon = tested on: HCC-2998 colon
# HCT-116 colon = tested on: HCT-116 colon
# HCT-15 colon = tested on: HCT-15 colon
# HL-60(TB) leukemia = tested on: HL-60(TB) leukemia
# HOP-18 NSCLC = tested on: HOP-18 NSCLC
# HOP-62 NSCLC = tested on: HOP-62 NSCLC
# HOP-92 NSCLC = tested on: HOP-92 NSCLC
# HT29 colon = tested on: HT29 colon
# IGROV1 ovarian = tested on: IGROV1 ovarian
# K-562 leukemia = tested on: K-562 leukemia
# KM12 colon = tested on: KM12 colon
# KM20L2 colon = tested on: KM20L2 colon
# LOX IMVI melanoma = tested on: LOX IMVI melanoma
# M19-MEL melanoma = tested on: M19-MEL melanoma
# MALME-3M melanoma = tested on: MALME-3M melanoma
# MCF7 breast = tested on: MCF7 breast
# MOLT-4 leukemia = tested on: MOLT-4 leukemia
# NCI-H226 lung = tested on: NCI-H226 lung
# NCI-H23 lung = tested on: NCI-H23 lung
# NCI-H460 lung = tested on: NCI-H460 lung
# NCI-H522 lung = tested on: NCI-H522 lung
# NCI/ADR-RES ovarian = tested on: NCI/ADR-RES ovarian
# OVCAR-3 ovarian = tested on: OVCAR-3 ovarian
# OVCAR-4 ovarian = tested on: OVCAR-4 ovarian
# OVCAR-5 ovarian = tested on: OVCAR-5 ovarian
# OVCAR-8 ovarian = tested on: OVCAR-8 ovarian
# P388 leukemia = tested on: P388 leukemia
# P388/ADR leukemia = tested on: P388/ADR leukemia
# RPMI-8226 leukemia = tested on: RPMI-8226 leukemia
# RXF 393 renal = tested on: RXF 393 renal
# SF-268 CNS = tested on: SF-268 CNS
# SF-295 CNS = tested on: SF-295 CNS
# SF-539 CNS = tested on: SF-539 CNS
# SK-MEL-2 melanoma = tested on: SK-MEL-2 melanoma
# SK-MEL-28 melanoma = tested on: SK-MEL-28 melanoma
# SK-MEL-5 melanoma = tested on: SK-MEL-5 melanoma
# SK-OV-3 ovarian = tested on: SK-OV-3 ovarian
# SN12C renal = tested on: SN12C renal
# SN12K1 renal = tested on: SN12K1 renal
# SNB-19 CNS = tested on: SNB-19 CNS
# SNB-75 CNS = tested on: SNB-75 CNS
# SNB-78 CNS = tested on: SNB-78 CNS
# SW-620 colon = tested on: SW-620 colon
# U251 CNS = tested on: U251 CNS
# UACC-257 melanoma = tested on: UACC-257 melanoma
# UACC-62 melanoma = tested on: UACC-62 melanoma
# UO-31 renal = tested on: UO-31 renal
# XF 498 CNS = tested on: XF 498 CNS
# 786-0 renal = tested on: 786-0 renal
# ACHN renal = tested on: ACHN renal
# LXFL 529 NSCLC = tested on: LXFL 529 NSCLC
# M14 melanoma = tested on: M14 melanoma
# RXF-631 renal = tested on: RXF-631 renal
# TK-10 renal = tested on: TK-10 renal
# SR leukemia = tested on: SR leukemia
structure (smiles),measurement,setting,value
COc1ccccc1Cc1nc(-c2ccccc2)nn(C2OC(COC(C)=O)C(OC(C)=O)C(OC(C)=O)C2OC(C)=O)c1=S (stereo unspecified),TGI,A498 renal,> 56.2 µM
same,TGI,A549 NSCLC,> 100 µM
same,TGI,CAKI-1 renal,32.9 µM
same,TGI,CCRF-CEM leukemia,> 100 µM
same,TGI,COLO 205 colon,> 86.9 µM
same,TGI,DLD-1 colon,> 100 µM
same,TGI,DMS 114 small cell lung,> 100 µM
same,TGI,DMS 273 small cell lung,> 79.6 µM
same,TGI,EKVX NSCLC,> 86.4 µM
same,TGI,HCC-2998 colon,> 43.2 µM
same,TGI,HCT-116 colon,> 45.9 µM
same,TGI,HCT-15 colon,84.6 µM
same,TGI,HL-60(TB) leukemia,> 100 µM
same,TGI,HOP-18 NSCLC,97.7 µM
same,TGI,HOP-62 NSCLC,38.3 µM
same,TGI,HOP-92 NSCLC,24.4 µM
same,TGI,HT29 colon,> 100 µM
same,TGI,IGROV1 ovarian,> 93.9 µM
same,TGI,K-562 leukemia,> 100 µM
same,TGI,KM12 colon,> 100 µM
same,TGI,KM20L2 colon,> 100 µM
same,TGI,LOX IMVI melanoma,> 100 µM
same,TGI,M19-MEL melanoma,> 100 µM
same,TGI,MALME-3M melanoma,72.3 µM
same,TGI,MCF7 breast,33.9 µM
same,TGI,MOLT-4 leukemia,> 100 µM
same,TGI,NCI-H226 lung,> 95.7 µM
same,TGI,NCI-H23 lung,42.6 µM
same,TGI,NCI-H460 lung,> 73.5 µM
same,TGI,NCI-H522 lung,36.4 µM
same,TGI,NCI/ADR-RES ovarian,> 100 µM
same,TGI,OVCAR-3 ovarian,> 85.3 µM
same,TGI,OVCAR-4 ovarian,8.58 µM
same,TGI,OVCAR-5 ovarian,> 100 µM
same,TGI,OVCAR-8 ovarian,> 100 µM
same,TGI,P388 leukemia,> 100 µM
same,TGI,P388/ADR leukemia,> 100 µM
same,TGI,RPMI-8226 leukemia,80.6 µM
same,TGI,RXF 393 renal,31.9 µM
same,TGI,SF-268 CNS,60.4 µM
same,TGI,SF-295 CNS,> 69.4 µM
same,TGI,SF-539 CNS,33.6 µM
same,TGI,SK-MEL-2 melanoma,41.3 µM
same,TGI,SK-MEL-28 melanoma,> 100 µM
same,TGI,SK-MEL-5 melanoma,26.1 µM
same,TGI,SK-OV-3 ovarian,> 67.2 µM
same,TGI,SN12C renal,32.2 µM
same,TGI,SN12K1 renal,> 53.4 µM
same,TGI,SNB-19 CNS,> 52.7 µM
same,TGI,SNB-75 CNS,15.4 µM
same,TGI,SNB-78 CNS,> 70.1 µM
same,TGI,SW-620 colon,> 100 µM
same,TGI,U251 CNS,> 31.6 µM
same,TGI,UACC-257 melanoma,> 100 µM
same,TGI,UACC-62 melanoma,> 80.3 µM
same,TGI,UO-31 renal,> 86 µM
same,TGI,XF 498 CNS,6.49 µM
O=c1c2ccccc2nc(-c2ccccc2)n1NC1OC(CO)C(O)C(O)C1O (stereo unspecified),TGI,786-0 renal,> 100 µM
same,TGI,A498 renal,> 100 µM
same,TGI,A549 NSCLC,> 100 µM
same,TGI,ACHN renal,> 100 µM
same,TGI,CAKI-1 renal,> 100 µM
same,TGI,CCRF-CEM leukemia,> 100 µM
same,TGI,COLO 205 colon,> 100 µM
same,TGI,DLD-1 colon,> 100 µM
same,TGI,DMS 114 small cell lung,> 100 µM
same,TGI,DMS 273 small cell lung,> 100 µM
same,TGI,EKVX NSCLC,> 100 µM
same,TGI,HCC-2998 colon,> 100 µM
same,TGI,HCT-116 colon,> 100 µM
same,TGI,HCT-15 colon,> 100 µM
same,TGI,HL-60(TB) leukemia,> 100 µM
same,TGI,HOP-18 NSCLC,> 100 µM
same,TGI,HOP-62 NSCLC,> 100 µM
same,TGI,HOP-92 NSCLC,> 100 µM
same,TGI,HT29 colon,> 100 µM
same,TGI,IGROV1 ovarian,> 100 µM
same,TGI,K-562 leukemia,> 100 µM
same,TGI,KM12 colon,> 100 µM
same,TGI,KM20L2 colon,> 100 µM
same,TGI,LXFL 529 NSCLC,> 100 µM
same,TGI,M14 melanoma,> 100 µM
same,TGI,M19-MEL melanoma,> 100 µM
same,TGI,MALME-3M melanoma,> 100 µM
same,TGI,MOLT-4 leukemia,> 100 µM
same,TGI,NCI-H226 lung,> 100 µM
same,TGI,NCI-H23 lung,> 100 µM
same,TGI,NCI-H460 lung,> 100 µM
same,TGI,NCI-H522 lung,> 100 µM
same,TGI,OVCAR-3 ovarian,> 100 µM
same,TGI,OVCAR-4 ovarian,> 100 µM
same,TGI,OVCAR-5 ovarian,> 100 µM
same,TGI,OVCAR-8 ovarian,> 100 µM
same,TGI,RPMI-8226 leukemia,> 100 µM
same,TGI,RXF-631 renal,> 100 µM
same,TGI,SF-268 CNS,> 100 µM
same,TGI,SF-295 CNS,> 100 µM
same,TGI,SF-539 CNS,> 100 µM
same,TGI,SK-MEL-2 melanoma,> 100 µM
same,TGI,SK-MEL-28 melanoma,> 100 µM
same,TGI,SK-MEL-5 melanoma,> 100 µM
same,TGI,SK-OV-3 ovarian,> 100 µM
same,TGI,SN12C renal,> 100 µM
same,TGI,SNB-19 CNS,> 100 µM
same,TGI,SNB-75 CNS,> 100 µM
same,TGI,SNB-78 CNS,> 100 µM
same,TGI,SW-620 colon,> 100 µM
same,TGI,TK-10 renal,> 100 µM
same,TGI,U251 CNS,> 100 µM
same,TGI,UACC-257 melanoma,> 100 µM
same,TGI,UACC-62 melanoma,> 100 µM
same,TGI,UO-31 renal,> 100 µM
same,TGI,XF 498 CNS,> 100 µM
COc1ccc(OC)c(NC(=O)CCC/C(CC(=O)c2ccc(O)c(OC)c2)=N\Nc2ccc([N+](=O)[O-])cc2)c1,TGI,786-0 renal,> 100 µM
same,TGI,A498 renal,> 100 µM
same,TGI,A549 NSCLC,> 100 µM
same,TGI,ACHN renal,> 100 µM
same,TGI,CAKI-1 renal,> 100 µM
same,TGI,CCRF-CEM leukemia,> 100 µM
same,TGI,COLO 205 colon,> 100 µM
same,TGI,DLD-1 colon,> 100 µM
same,TGI,DMS 114 small cell lung,> 100 µM
same,TGI,DMS 273 small cell lung,> 100 µM
same,TGI,EKVX NSCLC,> 100 µM
same,TGI,HCC-2998 colon,> 100 µM
same,TGI,HCT-116 colon,> 100 µM
same,TGI,HCT-15 colon,> 100 µM
same,TGI,HL-60(TB) leukemia,> 100 µM
same,TGI,HOP-18 NSCLC,> 100 µM
same,TGI,HOP-62 NSCLC,> 100 µM
same,TGI,HOP-92 NSCLC,85.6 µM
same,TGI,HT29 colon,> 100 µM
same,TGI,IGROV1 ovarian,> 100 µM
same,TGI,K-562 leukemia,> 100 µM
same,TGI,KM12 colon,> 100 µM
same,TGI,KM20L2 colon,> 100 µM
same,TGI,LOX IMVI melanoma,> 100 µM
same,TGI,LXFL 529 NSCLC,> 100 µM
same,TGI,M14 melanoma,> 100 µM
same,TGI,M19-MEL melanoma,> 100 µM
same,TGI,MALME-3M melanoma,> 100 µM
same,TGI,MOLT-4 leukemia,> 100 µM
same,TGI,NCI-H226 lung,> 100 µM
same,TGI,NCI-H23 lung,> 100 µM
same,TGI,NCI-H460 lung,> 100 µM
same,TGI,NCI-H522 lung,> 100 µM
same,TGI,OVCAR-3 ovarian,> 100 µM
same,TGI,OVCAR-4 ovarian,> 100 µM
same,TGI,OVCAR-5 ovarian,> 100 µM
same,TGI,OVCAR-8 ovarian,> 100 µM
same,TGI,RPMI-8226 leukemia,> 100 µM
same,TGI,RXF 393 renal,78.6 µM
same,TGI,RXF-631 renal,> 100 µM
same,TGI,SF-268 CNS,> 100 µM
same,TGI,SF-295 CNS,> 100 µM
same,TGI,SF-539 CNS,> 100 µM
same,TGI,SK-MEL-2 melanoma,> 100 µM
same,TGI,SK-MEL-5 melanoma,> 100 µM
same,TGI,SK-OV-3 ovarian,> 100 µM
same,TGI,SN12C renal,> 100 µM
same,TGI,SNB-19 CNS,> 100 µM
same,TGI,SNB-75 CNS,79 µM
same,TGI,SNB-78 CNS,> 100 µM
same,TGI,SR leukemia,> 100 µM
same,TGI,SW-620 colon,> 100 µM
same,TGI,TK-10 renal,> 100 µM
same,TGI,U251 CNS,> 100 µM
same,TGI,UACC-257 melanoma,> 100 µM
same,TGI,UACC-62 melanoma,> 100 µM
same,TGI,UO-31 renal,> 100 µM
same,TGI,XF 498 CNS,> 100 µM
